Structures can show the parent of a compound that is named as a salt.
Target: T1, 5HT6-human recombinant receptor (Homo sapiens, UniProt P50406)
T1 construct: purchased Receptor Biology; host or cells: HEK-293 cell membranes
Test: Binding to serotonin receptor 5-HT6 ([3H]-LSD displacement)
Details: radioligand [3H]-LSD 2.7 nM; for inhibition at 0.01 µM / inhibition at 0.1 µM: 1 h; for Ki: membranes of HEK-293 cells expressing the receptor, 60 min, 37° C.
Method: Cell membranes of HEK-293 cells expressing the 5HT6-human recombinant receptor were supplied by Receptor Biology. In said membranes the receptor concentration is 2.18 pmol/mg protein and the protein concentration is 9.17 mg/ml. The experimental protocol follows the method of B. L. Roth et al. [B. L. Roth, S. C. Craigo, M. S. Choudhary, A. Uluer, F. J. Monsma, Y. Shen, H. Y. Meltzer, D. R. Sibley: Binding of Typical and Atypical Antipsychotic Agents to 5-Hydroxytryptamine-6 and Hydroxytryptamine-7 Receptors. The Journal of Pharmacology and Experimental Therapeutics, 1994, 268, 1403] with the following slight changes. The respective part of the literature description is hereby incorporated by reference and forms part of the disclosure.
The commercial membrane is diluted (1:40 dilution) with the binding buffer: 50 mM Tris-HCl, 10 mM MgCl2, 0.5 mM EDTA (pH 7.4). The radioligand used is [^3H]-LSD at a concentration of 2.7 nM with a final volume of 200 μl. Incubation is initiated by adding 100 μl of membrane suspension, (≈22.9 μg membrane protein), and is prolonged for 60 minutes at a temperature of 37° C. The incubation is ended by fast filtration in a Brandel Cell Harvester through fiber glass filters made by Schleicher & Schuell GF 3362 pretreated with a solution of polyethylenimine at 0.5%. The filters are washed three times with three milliliters of buffer Tris-HCl 50 mM pH 7.4. The filters are transferred to flasks and 5 ml of Ecoscint H liquid scintillation cocktail are added to each flask. The flasks are allowed to reach equilibrium for several hours before counting with a Wallac Winspectral 1414 scintillation counter. Non-specific binding is determined in the presence of 100 μM of serotonin. Tests were made in triplicate. The inhibition constants (Ki, nM) were calculated by non-linear regression analysis using the program EBDA/LIGAND described in Munson and Rodbard, Analytical Biochemistry, 1980, 107, 220, the respective part of which is hereby incorporated by reference and forms part of the disclosure.

T1 sequence (P50406 whole entry): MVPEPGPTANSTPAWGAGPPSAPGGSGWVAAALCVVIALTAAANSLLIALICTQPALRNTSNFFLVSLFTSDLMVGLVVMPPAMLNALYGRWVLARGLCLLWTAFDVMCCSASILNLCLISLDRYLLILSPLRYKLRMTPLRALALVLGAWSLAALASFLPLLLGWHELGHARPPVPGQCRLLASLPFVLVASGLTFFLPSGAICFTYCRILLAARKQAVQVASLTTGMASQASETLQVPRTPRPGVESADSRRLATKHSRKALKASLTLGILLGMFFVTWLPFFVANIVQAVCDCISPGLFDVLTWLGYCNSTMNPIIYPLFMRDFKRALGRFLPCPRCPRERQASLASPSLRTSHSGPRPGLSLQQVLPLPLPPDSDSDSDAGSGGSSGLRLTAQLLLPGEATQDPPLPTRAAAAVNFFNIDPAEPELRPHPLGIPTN

Row | SMILES | inhibition at 0.01 µM (compound at 10 nM) [%] | inhibition at 0.1 µM (compound at 100 nM) [%] | Ki [nM] | Binding % [10 nM] (compound at 10 nM) [%] | Binding % [100 nM] (compound at 100 nM) [%]
1 | O=S(=O)(Nc1ccc2c(c1)CCNC2)c1ccc2ccccc2c1 [Example 153, Naphthalene-2-sulfonic acid (1,2,3,4-tetrahydro-isoquinolin-6-yl)-amide] |  |  | 8.7 ± 0.4 | 52.9 | 88.2
2 | O=S(=O)(Nc1ccc2c(c1)CCNC2)c1cccc2ccccc12 [Example 1, Naphthalene-1-sulfonic acid (1,2,3,4-tetrahydroisoquinolin-6-yl)-amide hydrochloride] | 53.3 | 74.8 | 13.8 |  | 
3 | CC(C)(C)OC(=O)N1CCc2cc(NS(=O)(=O)c3cccnc3)ccc2C1 [Example 18, 6-(Pyridine-3-sulfonylamino)-3,4-dihydro-1H-isoquinoline-2-carboxylic acid tert-butyl ester] | -0.8 | 6.8 |  |  | 
4 | Cc1ccc(S(=O)(=O)Nc2ccc3c(c2)CCN(C)C3)c2ccccc12 [Example 7, 4-Methyl-naphthalene-1-sulfonic acid (2-methyl-1,2,3,4-tetrahydro-isoqui-nolin-6-yl)amide hydrochloride] | 80.3 | 92.2 | 13.3 |  | 
5 | O=S(=O)(Nc1ccc2c(c1)CCNC2)c1cccc2c(Cl)cccc12 [Example 42, 5-Chloro-naphthalene-1-sulfonic acid (1,2,3,4-tetrahydro-isoquinolin-6-yl)-amide hydrochloride] | 78.2 | 88.9 | 9.3 ± 2.2 |  | 
6 | O=S(=O)(Nc1ccc2c(c1)CCNC2)c1ccc(Cl)c2ccccc12 [Example 31, 4-Chloro-naphthalene-1-sulfonic acid (1,2,3,4-tetrahydro-isoquinolin-6-yl)-amide hydrochloride] | 72.3 | 85.5 | 5.7 |  | 
7 | Cc1c(S(=O)(=O)Nc2ccc3c(c2)CCN(C(=O)OC(C)(C)C)C3)sc2ccc(Cl)cc12 [Example 14, 6-(5-Chloro-3-methyl-benzo[b]thiophene-2-sulfonylamino)-3,4-dihydro-1H-isoquinoline-2-carboxylic acid tert-butyl ester] | -7.3 | -3 |  |  | 
8 | COc1ccc(C)cc1S(=O)(=O)Nc1ccc2c(c1)CCN(C(=O)OC(C)(C)C)C2 [Example 17, 6-(2-Methoxy-5-methyl-benzenesulfonylamino)-3,4-dihydro-1H-isoquinoline-2-carboxylic acid tert-butyl ester] | -1.3 | -2 |  |  | 
9 | CN1CCc2cc(NS(=O)(=O)c3cccc4ccccc34)ccc2C1 [Example 3, Naphthalene-1-sulfonic acid (2-methyl-1,2,3,4-tetrahydro-isoquinolin-6-yl)-amide hydrochloride] | 3.9 | 18.2 |  |  | 
10 | CC(C)(C)OC(=O)N1CCc2cc(NS(=O)(=O)c3ccc4ccccc4c3)ccc2C1 [Example 16, 6-(Naphthalene-2-sulfonylamino)-3,4-dihydro-1H-isoquinoline-2-carboxylic acid tert-butyl ester] | 5.6 | 10.6 |  |  | 
11 | O=S(=O)(Nc1ccc2c(c1)CCNC2)c1ccccc1-c1ccccc1 [Example 22, Biphenyl-2-sulfonic acid (1,2,3,4-tetrahydro-isoquinolin-6-yl)-amide hydrochloride] | 79.7 | 90.8 | 12.3 ± 6 |  | 
12 | CN1CCc2cc(NS(=O)(=O)c3ccc4ccccc4c3)ccc2C1 [Example 9, Naphthalene-2-sulfonic acid (2-methyl-1,2,3,4-tetrahydro-isoquinolin-6-yl)-amide hydrochloride] | 60.1 | 86.5 | 9.2 ± 1.2 |  | 
13 | O=S(=O)(Nc1ccc2c(c1)CCNC2)c1ccc(F)c2ccccc12 [Example 30, 4-Fluoro-naphthalene-1-sulfonic acid (1,2,3,4-tetrahydro-isoquinolin-6-yl)-amide hydrochloride] | 63.2 | 85.2 | 7.8 ± 0.1 |  | 
14 | O=S(=O)(Nc1ccc2c(c1)CNCC2)c1ccccc1-c1ccccc1 [Example 62, Biphenyl-2-sulfonic acid (1,2,3,4-tetrahydro-isoquinolin-7-yl)-amide hydrochloride] | 89 | 86.4 | 2.4 ± 0.5 |  | 
15 | Cc1ccc(S(=O)(=O)Nc2ccc3c(c2)CN(C)CC3)c2ccccc12 [Example 56, 4-Methyl-naphthalene-1-sulfonic acid (2-methyl-1,2,3,4-tetrahydro-isoqui-nolin-7-yl)-amide hydrochloride] | 86.8 | 92.8 | 10.3 |  | 
16 | CN1CCc2ccc(NS(=O)(=O)c3c(Cl)nc4sccn34)cc2C1 [Example 53, 6-Chloro-imidazo[2,1-b]thiazole-5-sulfonic acid (2-methyl-1,2,3,4-tetrahydro-isoquinolin-7-yl)-amide hydrochloride] | 55.4 | 82.8 | 3.8 ± 1 |  | 

Further lines, results first:

Row | inhibition at 0.01 µM (compound at 10 nM) [%] | inhibition at 0.1 µM (compound at 100 nM) [%] | Ki [nM] | Binding % [10 nM] (compound at 10 nM) [%] | Binding % [100 nM] (compound at 100 nM) [%] | SMILES
17 | 44.8 | 65.1 | 49.4 ± 8.2 |  |  | Cc1c(S(=O)(=O)Nc2ccc3c(c2)CNCC3)sc2ccc(Cl)cc12 [Example 60, 5-Chloro-3-methyl-benzo[b]thiophene-2-sulfonic acid (1,2,3,4-tetrahydro-isoquinolin-7-yl)-amide hydrochloride]
18 | 78.9 | 88.4 | 6.1 ± 0.7 |  |  | CCc1ccc(OC)c(S(=O)(=O)Nc2ccc3c(c2)CNCC3)c1 [Example 86, 5-Ethyl-2-methoxy-N-(1,2,3,4-tetrahydro-isoquinolin-7-yl)-benzenesulfonamide hydrochloride]
19 | 88 | 89.6 | 5.3 ± 0.4 |  |  | O=S(=O)(Nc1ccc2c(c1)CCNC2)c1csc2ccccc12 [Example 29, Benzo[b]thiophene-3-sulfonic acid (1,2,3,4-tetrahydro-isoquinolin-6-yl)-amide hydrochloride]
20 | 41.9 | 66.9 | 55.8 ± 24.1 |  |  | Cc1c(S(=O)(=O)Nc2ccc3c(c2)CNCC3)sc2ccc(F)cc12 [Example 64, 5-Fluoro-3-methyl-benzo[b]thiophene-2-sulfonic acid (1,2,3,4-tetrahydro-isoquinolin-7-yl)-amide hydrochloride]
21 | 70.3 | 84.1 | 9.4 ± 3.7 |  |  | O=S(=O)(Nc1ccc2c(c1)CNCC2)c1ccc(Cl)c2ccccc12 [Example 81, 4-Chloro-naphthalene-1-sulfonic acid (1,2,3,4-tetrahydro-isoquinolin-7-yl)-amide hydrochloride]
22 | 73.1 | 83.2 | 19.2 ± 2.4 |  |  | Cc1ccc2nsnc2c1S(=O)(=O)Nc1ccc2c(c1)CNCC2 [Example 76, 5-Methylbenzo[1,2,5] thiadiazole-4-sulfonic acid (1,2,3,4-tetrahydro-isoquinolin-7-yl)-amide hydrochloride]
23 | 48.8 | 81.6 | 14.2 ± 1.5 |  |  | CCc1ccc(OC)c(S(=O)(=O)Nc2ccc3c(c2)CCNC3)c1 [Example 35, 5-Ethyl-2-methoxy-N-(1,2,3,4-tetrahydro-isoquinolin-6-yl)-benzene sulfonamide hydrochloride]
24 | 60.1 | 88.8 | 14.5 ± 3.8 |  |  | Cc1ccc(S(=O)(=O)Nc2ccc3c(c2)CCNC3)c2ccccc12 [Example 6, 4-Methyl-naphthalene-1-sulfonic acid (1,2,3,4-tetrahydro-isoquinolin-6-yl)amide hydrochloride]
25 | 78.6 | 85.5 | 3.2 ± 0.4 |  |  | O=S(=O)(Nc1ccc2c(c1)CNCC2)c1cccc2ccccc12 [Example 61, Naphthalene-1-sulfonic acid (1,2,3,4-tetrahydro-isoquinolin-7-yl)-amide hydrochloride]
26 | 82.3 | 84.9 | 3.8 ± 1.2 |  |  | Cc1ccc(S(=O)(=O)Nc2ccc3c(c2)CNCC3)c2ccccc12 [Example 55, 4-Methyl-naphthalene-1-sulfonic acid (1,2,3,4-tetrahydro-isoquinolin-7-yl)-amide hydrochloride]
27 | 81 | 91.9 | 10.7 ± 4.8 |  |  | O=S(=O)(Nc1ccc2c(c1)CNCC2)c1c(Cl)nc2sccn12 [Example 54, 6-Chloro-imidazo[2,1-b]thiazole-5-sulfonic acid (1,2,3,4-tetrahydro-iso-quinolin-7-yl)-amide hydrochloride]

— patent US20090209528A1, “SUBSTITUTED TETRAHYDROISOQUINOLINE COMPOUND, THEIR PREPARATION AND USE IN MEDICAMENTS” (LABORATORIOS DEL DR. ESTEVE S.A., priority 2006, published 2009)
